{"source": "ChEMBL document CHEMBL3734689", "about": "“Enzyme kinetics and inhibition of histone acetyltransferase KAT8” (Eur J Med Chem, 2015)", "note": "pKi: −log10 of the molar value."}
{"target": "T1, Histone acetyltransferase KAT8 (Homo sapiens, UniProt Q9H7Z6)", "T1 sequence (Q9H7Z6 whole entry)": "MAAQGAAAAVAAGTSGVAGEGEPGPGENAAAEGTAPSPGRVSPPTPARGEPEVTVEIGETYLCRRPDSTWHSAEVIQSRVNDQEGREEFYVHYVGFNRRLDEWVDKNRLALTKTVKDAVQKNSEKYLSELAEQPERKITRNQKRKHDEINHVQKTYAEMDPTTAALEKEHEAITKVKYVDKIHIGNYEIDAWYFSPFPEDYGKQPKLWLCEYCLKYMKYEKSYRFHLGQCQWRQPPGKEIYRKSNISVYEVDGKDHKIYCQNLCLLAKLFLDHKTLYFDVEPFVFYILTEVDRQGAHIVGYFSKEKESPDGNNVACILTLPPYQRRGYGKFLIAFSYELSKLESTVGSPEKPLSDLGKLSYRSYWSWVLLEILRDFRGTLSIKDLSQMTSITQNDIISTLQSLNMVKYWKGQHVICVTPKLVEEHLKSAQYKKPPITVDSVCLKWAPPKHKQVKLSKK", "test": "Inhibition of recombinant N-terminal His6-tagged KAT8 (unknown origin) expressed in Escherichia Coli BL21 DE3 cells assessed as reduction of Co A level using histone H4 substrate after 15 mins by CPM fluorescence assay"}
{"smiles": "CCCCCCCCCCCCCCCc1ccc(O)c(C(=O)O)c1", "pKi": 4.10}
{"smiles": "CCCCCCCCCCc1cccc(O)c1C(=O)O", "pKi": 4.43}
{"smiles": "O=C(O)c1c(O)cccc1CCCCCCCCCCCO", "pKi": 3.80}
{"smiles": "CCCCCCCCCCc1ccc(O)c(C(=O)O)c1", "pKi": 4.24}
